# PubChem BioAssay (NCI)
#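 Exposure lasted 48 hours, with cells grown in 96-well plates and compounds tested at five concentrations. At the GI50, growth is halved. TGI marks complete inhibition of growth.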
# Columns and labels:
# Assay in all cases: growth of human tumour cells (NCI), 48 h
# HCT-15 colon = system: HCT-15 colon
# SW-620 colon = system: SW-620 colon
# HOP-62 NSCLC = system: HOP-62 NSCLC
# NCI-H522 lung = system: NCI-H522 lung
# RXF 393 renal = system: RXF 393 renal
# MCF7 breast = system: MCF7 breast
# HL-60(TB) leukemia = system: HL-60(TB) leukemia
# 786-0 renal = system: 786-0 renal
# CAKI-1 renal = system: CAKI-1 renal
# HS 578T breast = system: HS 578T breast
# TK-10 renal = system: TK-10 renal
# DU-145 prostate = system: DU-145 prostate
# UACC-62 melanoma = system: UACC-62 melanoma
# EKVX NSCLC = system: EKVX NSCLC
# OVCAR-5 ovarian = system: OVCAR-5 ovarian
# SN12C renal = system: SN12C renal
# MALME-3M melanoma = system: MALME-3M melanoma
# OVCAR-8 ovarian = system: OVCAR-8 ovarian
# K-562 leukemia = system: K-562 leukemia
# SNB-75 CNS = system: SNB-75 CNS
# SK-MEL-2 melanoma = system: SK-MEL-2 melanoma
# RPMI-8226 leukemia = system: RPMI-8226 leukemia
# BT-549 breast = system: BT-549 breast
# SF-268 CNS = system: SF-268 CNS
# LOX IMVI melanoma = system: LOX IMVI melanoma
# MOLT-4 leukemia = system: MOLT-4 leukemia
# CCRF-CEM leukemia = system: CCRF-CEM leukemia
# OVCAR-4 ovarian = system: OVCAR-4 ovarian
# NCI/ADR-RES ovarian = system: NCI/ADR-RES ovarian
# COLO 205 colon = system: COLO 205 colon
# SR leukemia = system: SR leukemia
# U251 CNS = system: U251 CNS
# HT29 colon = system: HT29 colon
# A549 NSCLC = system: A549 NSCLC
# IGROV1 ovarian = system: IGROV1 ovarian
# SNB-19 CNS = system: SNB-19 CNS
# HOP-92 NSCLC = system: HOP-92 NSCLC
# NCI-H226 lung = system: NCI-H226 lung
# SF-539 CNS = system: SF-539 CNS
# OVCAR-3 ovarian = system: OVCAR-3 ovarian
# SK-MEL-5 melanoma = system: SK-MEL-5 melanoma
# PC-3 prostate = system: PC-3 prostate
# UO-31 renal = system: UO-31 renal
# A498 renal = system: A498 renal
# HCT-116 colon = system: HCT-116 colon
# MDA-MB-231 breast = system: MDA-MB-231 breast
# M14 melanoma = system: M14 melanoma
# NCI-H460 lung = system: NCI-H460 lung
# MDA-MB-435 = system: MDA-MB-435
# SF-295 CNS = system: SF-295 CNS
# KM12 colon = system: KM12 colon
# T-47D breast = system: T-47D breast
# SK-MEL-28 melanoma = system: SK-MEL-28 melanoma
# UACC-257 melanoma = system: UACC-257 melanoma
# ACHN renal = system: ACHN renal
# SK-OV-3 ovarian = system: SK-OV-3 ovarian
# NCI-H23 lung = system: NCI-H23 lung
# HCC-2998 colon = system: HCC-2998 colon
smiles,measurement,setting,value
CCOC(=O)c1c(NC(=O)c2ccc(C(C)C)cc2)sc2c(CN(C)C)c(O)ccc12,GI50,HCT-15 colon,1.17 µM
same,TGI,HCT-15 colon,2.74 µM
same,GI50,SW-620 colon,1.7 µM
same,TGI,SW-620 colon,3.41 µM
same,GI50,HOP-62 NSCLC,2.2 µM
same,TGI,HOP-62 NSCLC,5.89 µM
same,GI50,NCI-H522 lung,2.01 µM
same,TGI,NCI-H522 lung,4.53 µM
same,GI50,RXF 393 renal,1.74 µM
same,TGI,RXF 393 renal,3.39 µM
same,GI50,MCF7 breast,1.75 µM
same,TGI,MCF7 breast,3.77 µM
same,GI50,HL-60(TB) leukemia,1.77 µM
same,TGI,HL-60(TB) leukemia,4.2 µM
same,GI50,786-0 renal,1.79 µM
same,TGI,786-0 renal,3.36 µM
same,GI50,CAKI-1 renal,1.73 µM
same,TGI,CAKI-1 renal,3.44 µM
same,GI50,HS 578T breast,2.01 µM
same,TGI,HS 578T breast,4.37 µM
same,GI50,TK-10 renal,3 µM
same,TGI,TK-10 renal,9.39 µM
same,GI50,DU-145 prostate,2.2 µM
same,TGI,DU-145 prostate,5.21 µM
same,GI50,UACC-62 melanoma,1.82 µM
same,TGI,UACC-62 melanoma,3.48 µM
same,GI50,EKVX NSCLC,2.78 µM
same,TGI,EKVX NSCLC,9.09 µM
same,GI50,OVCAR-5 ovarian,2.92 µM
same,TGI,OVCAR-5 ovarian,9.49 µM
same,GI50,SN12C renal,4.53 µM
same,TGI,SN12C renal,17.9 µM
same,GI50,MALME-3M melanoma,1.72 µM
same,TGI,MALME-3M melanoma,3.22 µM
same,GI50,OVCAR-8 ovarian,3.56 µM
same,TGI,OVCAR-8 ovarian,16.3 µM
same,GI50,K-562 leukemia,0.535 µM
same,TGI,K-562 leukemia,3.28 µM
same,GI50,SNB-75 CNS,1.47 µM
same,TGI,SNB-75 CNS,3.39 µM
same,GI50,SK-MEL-2 melanoma,2.14 µM
same,TGI,SK-MEL-2 melanoma,4.59 µM
same,GI50,RPMI-8226 leukemia,1.84 µM
same,TGI,RPMI-8226 leukemia,4.6 µM
same,GI50,BT-549 breast,2.18 µM
same,TGI,BT-549 breast,5.35 µM
same,GI50,SF-268 CNS,1.98 µM
same,TGI,SF-268 CNS,4.06 µM
same,GI50,LOX IMVI melanoma,1.76 µM
same,TGI,LOX IMVI melanoma,3.23 µM
same,GI50,MOLT-4 leukemia,2.05 µM
same,TGI,MOLT-4 leukemia,4.92 µM
same,GI50,CCRF-CEM leukemia,2.33 µM
same,TGI,CCRF-CEM leukemia,7.35 µM
same,GI50,OVCAR-4 ovarian,3.7 µM
same,TGI,OVCAR-4 ovarian,13.3 µM
same,GI50,NCI/ADR-RES ovarian,1.89 µM
same,TGI,NCI/ADR-RES ovarian,4.52 µM
same,GI50,COLO 205 colon,2.06 µM
same,TGI,COLO 205 colon,4.5 µM
same,GI50,SR leukemia,2.09 µM
same,TGI,SR leukemia,6.44 µM
same,GI50,U251 CNS,2.59 µM
same,TGI,U251 CNS,7.13 µM
same,GI50,HT29 colon,3.26 µM
same,TGI,HT29 colon,14.1 µM
same,GI50,A549 NSCLC,4.29 µM
same,TGI,A549 NSCLC,20.7 µM
same,GI50,IGROV1 ovarian,2.89 µM
same,TGI,IGROV1 ovarian,8.69 µM
same,GI50,SNB-19 CNS,2.36 µM
same,TGI,SNB-19 CNS,5.3 µM
same,GI50,HOP-92 NSCLC,1.44 µM
same,TGI,HOP-92 NSCLC,3.1 µM
same,GI50,NCI-H226 lung,2.19 µM
same,TGI,NCI-H226 lung,6.48 µM
same,GI50,SF-539 CNS,1.74 µM
same,TGI,SF-539 CNS,3.23 µM
same,GI50,OVCAR-3 ovarian,3.52 µM
same,TGI,OVCAR-3 ovarian,11.9 µM
same,GI50,SK-MEL-5 melanoma,1.73 µM
same,TGI,SK-MEL-5 melanoma,3.11 µM
same,GI50,PC-3 prostate,2.18 µM
same,TGI,PC-3 prostate,5.71 µM
same,GI50,UO-31 renal,1.46 µM
same,TGI,UO-31 renal,2.82 µM
same,GI50,A498 renal,1.86 µM
same,TGI,A498 renal,9.02 µM
same,GI50,HCT-116 colon,1.78 µM
same,TGI,HCT-116 colon,3.36 µM
same,GI50,MDA-MB-231 breast,1.95 µM
same,TGI,MDA-MB-231 breast,3.83 µM
same,GI50,M14 melanoma,1.77 µM
same,TGI,M14 melanoma,3.48 µM
same,GI50,NCI-H460 lung,1.88 µM
same,TGI,NCI-H460 lung,3.6 µM
same,GI50,MDA-MB-435,1.77 µM
same,TGI,MDA-MB-435,3.37 µM
same,GI50,SF-295 CNS,1.86 µM
same,TGI,SF-295 CNS,3.45 µM
same,GI50,KM12 colon,1.83 µM
same,TGI,KM12 colon,3.45 µM
same,GI50,T-47D breast,2.01 µM
same,TGI,T-47D breast,5.17 µM
same,GI50,SK-MEL-28 melanoma,1.73 µM
same,TGI,SK-MEL-28 melanoma,3.24 µM
same,GI50,UACC-257 melanoma,2.12 µM
same,TGI,UACC-257 melanoma,4.61 µM
same,GI50,ACHN renal,3.03 µM
same,TGI,ACHN renal,9.24 µM
same,GI50,SK-OV-3 ovarian,3 µM
same,TGI,SK-OV-3 ovarian,9.22 µM
same,GI50,NCI-H23 lung,3.22 µM
same,TGI,NCI-H23 lung,13.3 µM
same,GI50,HCC-2998 colon,1.88 µM
same,TGI,HCC-2998 colon,3.51 µM
